Experimental findings from ChEMBL document CHEMBL3507680, “University of Dundee, Gates Library screen for HepG2 cell viability” are described below.

The nature of the data set: Human HepG2 cell viability assay in 384 well format. It is filed as toxicity, cell-based. More on the design: dose 125 nL, time 70.5 hour; cytotoxicity at 70.5 h: concentration not given beside the values. As to conditions: HepG2 cells, read-out: Inhibition.
In the case of `COc1ccc(C)cc1S(=O)(=O)NCC(c1cccn1C)N(C)C` (configuration not stated), the cytotoxicity at 70.5 h is -3.74%.
In the case of `Cc1cccc(C(=O)NCCCN2CCN(c3ccccc3)CC2)c1`, the cytotoxicity at 70.5 h was found to be 7.06%.
As to `COc1ncccc1C(=O)N1CCC(c2nnc(C3CC3)o2)CC1`, the cytotoxicity at 70.5 h was 4.57%.
Take `COc1nn(C)cc1C(=O)N1CCC(c2nnc(C3CC3)o2)CC1`: the cytotoxicity at 70.5 h was -1.01%.
For the compound `O=C(NCC(Cc1cccc(F)c1)N1CCCC1=O)c1ccccc1` (configuration not stated), the cytotoxicity at 70.5 h worked out at 4.11%.
The same measure for `O=S(=O)(Cc1ccccc1)NCC1CCN(c2cnccn2)CC1`: 4.32%.
As to `Cc1nc(CNC(=O)C(C)Oc2ccccc2F)no1` (configuration not stated), the cytotoxicity at 70.5 h was -5.02%.
`COc1ccc(OC)c([C@@H]2N[C@H](c3nccs3)Cc3ccsc32)c1`: the cytotoxicity at 70.5 h is -11.6%.
Regarding `CCOc1cc([C@H]2N[C@@H](c3nc(C)cs3)Cc3ccsc32)ccc1OC`, the cytotoxicity at 70.5 h is -6.01%.
For the compound `CCS(=O)(=O)N1C[C@@H](C(=O)NC(C)C)[C@@]2(Cc3ccccc3C(=O)N2)C1`, the cytotoxicity at 70.5 h was -11.3%.
In the case of `COc1cc(C(=O)NC(C)(C)CN2CCN(C)CC2)c2ccccc2n1`, the cytotoxicity at 70.5 h was -11.5%.
For the compound `OC1CCCOC12CCN(CCCOc1ccccc1F)CC2` (configuration not stated), the cytotoxicity at 70.5 h was -10.9%.
Consider `CC(C)(C)NC(=O)[C@@H]1CNC[C@]12Cc1ccccc1C(=O)N2`, for which the cytotoxicity at 70.5 h was -4.03%.
Turning to `CCC1CCCCN1C(=O)Cn1nc(-c2ccc(C)o2)cc(N)c1=O` (configuration not stated), the cytotoxicity at 70.5 h was -15.1%.
Consider `CN1C[C@@H](C(=O)NC2CC2)[C@@]2(COc3ccc(F)cc3C2=O)C1`, for which the cytotoxicity at 70.5 h was 12.2%.
For `CN(C)Cc1cnc(C2CCN(C(=O)c3cccc(F)c3)C2)[nH]1` (configuration not stated), the cytotoxicity at 70.5 h stood at 20.2%.
The same measure for `CN(C)Cc1cnc(C2CCN(C(=O)c3cc(F)cc(F)c3)C2)[nH]1` (configuration not stated): -2.53%; for `CNC(=O)C1(Cc2cc(C(C)C)no2)CCN(Cc2cccnc2)C1` (configuration not stated): -5.78%.
The same measure for `CO[C@H]1C[C@@H]2CN(C(=O)c3cccc4c3OCCO4)C[C@@H]2C1`: 20.7%.
On to `Cc1noc(C)c1-c1cc(CCC2CN(C(=O)C(C)C)CCO2)ncn1` (configuration not stated), for which the cytotoxicity at 70.5 h is -3.99%.
Take `O[C@H]1CN(CCCOc2ccccc2F)CC[C@@]12CCCO2`: the cytotoxicity at 70.5 h was -2.73%.
Regarding `Cc1cc(C(F)F)nn1C(C)C(=O)NCc1ncc[nH]1` (configuration not stated), the cytotoxicity at 70.5 h is -1.75%.
Turning to `Cc1cncc(C2CCN(Cc3ccsc3)CC2)n1`, the cytotoxicity at 70.5 h was 4.8%.
For `CNC(=O)C1CN(C(=O)c2cccnc2)CCN(S(C)(=O)=O)C1` (configuration not stated), the cytotoxicity at 70.5 h was -4.31%.
On to `Cc1nccc(N(C)Cc2ncc(-c3ccccc3C(=O)O)s2)n1`, for which the cytotoxicity at 70.5 h was -1.97%.
Turning to `CS(=O)(=O)N1CCC(c2cnc(-c3cn[nH]c3)cn2)CC1`, the cytotoxicity at 70.5 h amounted to 0.854%.
Consider `CNC(=O)C1CN(C)CCN(C(=O)CCn2nnc3ccccc32)C1` (configuration not stated), for which the cytotoxicity at 70.5 h came out at 0.266%.
For the compound `Cn1ccc(C(=O)N2CCc3[nH]nc(Nc4ccccc4)c3C2)n1`, the cytotoxicity at 70.5 h was found to be 1.75%.
For the compound `CNC(=O)C1CN(C(=O)c2cccs2)CCN(S(C)(=O)=O)C1` (configuration not stated), the cytotoxicity at 70.5 h is -2.89%.
As to `CC(=O)N1CCOCC(Cc2ccc3c(ccn3C(C)=O)c2)C1` (configuration not stated), the cytotoxicity at 70.5 h is -2.4%.
On to `c1cncc(CN2CCCCC2c2ccc(Nc3cnccn3)nc2)c1` (configuration not stated), for which the cytotoxicity at 70.5 h was -5.32%.
Under `O=C(Cc1cccnc1)N1CCC(c2nnc(-c3ccccn3)o2)CC1` stands 25.5%; under `CNC(=O)C1CN(C(=O)c2ccccc2)Cc2cn(C)nc21` (configuration not stated), 26.9%; under `COc1cc(CCC(=O)N2CCC(c3cc4nccnc4[nH]3)CC2)on1`, 28.5%.
In the case of `Cc1nn(C)cc1CN1CCN(CC2(c3ccccc3)CC2)CC1`, the cytotoxicity at 70.5 h is -1.67%.
With `CC(=O)N1C[C@H](c2cc(O)nc(C)n2)[C@@H](c2ccccc2F)C1`, the cytotoxicity at 70.5 h is -2.65%.
Regarding `CN(CCc1ccccc1)Cc1cnc(C2(C)CCCCO2)nc1` (configuration not stated), the cytotoxicity at 70.5 h worked out at 1.38%.
For `COCCC(=O)N1C[C@@H](O)[C@H](N2CCN(c3ccccc3)CC2)C1`, the cytotoxicity at 70.5 h was -2.33%.
Under `Cc1n[nH]c(C)c1CC(=O)N1CC[C@@](C)(O)[C@H](Oc2ccccc2)C1` stands -6.16%; under `Nc1ncnc2nc(C3CCN(C(=O)Cc4ccccc4)C3)ccc12` (configuration not stated), 13.4%.
Take `COC(=O)c1cccc(C2CNCCN2C)c1` (configuration not stated): the cytotoxicity at 70.5 h came to 12%.
For the compound `Cc1nc(-c2c(C)noc2C)cc(C2CCN(S(=O)(=O)N(C)C)CC2)n1`, the cytotoxicity at 70.5 h was -8.98%.
In the case of `CN1CCCC1c1nnc2n1CCN(S(=O)(=O)c1ccccc1Cl)CC2` (configuration not stated), the cytotoxicity at 70.5 h was -8.1%.
Under `CC(=O)Nc1ccc(CN2CCCC(c3cc4ncccc4[nH]3)C2)cc1` (configuration not stated) stands -5.47%; under `CNc1cncc(C2CCCN2C(=O)Cn2ccnc2C)n1` (configuration not stated), -5.3%; under `N[C@@H]1CCCN(C(=O)Cc2c[nH]c3ccccc23)[C@H]1c1ccccc1F`, 23.2%.
As to `Cc1cc(-c2cnc(N(C)C)nc2C2CCCCN2C(=O)C2CC2)on1` (configuration not stated), the cytotoxicity at 70.5 h is -3.37%.
For the compound `O=S(=O)(c1cccc(F)c1)N1CCCCC1c1ccn[nH]1` (configuration not stated), the cytotoxicity at 70.5 h was -7.34%.
Under `Cc1nc(-c2cccc(C(=O)O)c2)cc(C2CCCN(C(C)C)C2)n1` (configuration not stated) stands 13.2%; under `COc1ccccc1CN1CC[C@H]2[C@@H](C1)[C@H](c1ccsc1)CN2C(C)=O`, 18.4%.
As for `Cn1cc(C(=O)N2CCCC(CN3CCCC3=O)C2)cn1` (configuration not stated), the cytotoxicity at 70.5 h was -7.83%.
On to `O=C(NC[C@]1(O)CN(Cc2ccccc2F)C[C@H]1O)c1cscn1`, for which the cytotoxicity at 70.5 h was -8.78%.
Take `Cc1nccn1CC1CCCN(C(=O)c2cnn(C)c2)C1` (configuration not stated): the cytotoxicity at 70.5 h was -12.8%.
In the case of `O=C(O)c1ccccc1-c1ccc(CN2CC(O)C2)cc1`, the cytotoxicity at 70.5 h is -11.6%.
The same measure for `COc1cccc(-c2noc(C3CCN(CC(N)=O)C3)n2)c1` (configuration not stated): -4.11%.
Consider `Cc1csc(Nc2cc(C3CCCCN3C)nc(C)n2)n1` (configuration not stated), for which the cytotoxicity at 70.5 h came out at 0.668%.
Take `c1ccc(CN2CCCC(c3nccnc3-n3ccnc3)C2)cc1` (configuration not stated): the cytotoxicity at 70.5 h was -17.5%.
`O=C(CO)N1CCC(c2cncc(-c3cccc(Cl)c3)n2)CC1`: the cytotoxicity at 70.5 h was -3.18%.
Regarding `CN(C)c1ncc(CN2CCOC(C(=O)Nc3ccccc3)C2)cn1` (configuration not stated), the cytotoxicity at 70.5 h is -6.09%.
Consider `Nc1nc(C2CCN(C(=O)c3cscn3)CC2)cs1`, for which the cytotoxicity at 70.5 h was -18.4%.
Regarding `Cc1nnc(Nc2cccc(C3CCN(CCO)CC3)n2)s1`, the cytotoxicity at 70.5 h was -13.5%.
In the case of `O=C(c1ccncc1)N1CCC(c2nc(O)cc(-c3cccnc3)n2)C1` (configuration not stated), the cytotoxicity at 70.5 h was -17.2%.
Under `CNc1nc(C)c(C(=O)N2CCCCC2CN2CCCCCC2)s1` (configuration not stated) stands -17.9%; under `Cc1ccc(-c2nnc(SCC(=O)O)n2-c2ccc(C)cc2)cc1`, -15.4%; under `CC(C)N1CCC(Cc2cncc(-c3ccccc3C(=O)O)n2)CC1`, -17.6%.
`CC1(C(=O)N2CCOCC2)CN(Cc2ccccc2F)CCO1` (configuration not stated): the cytotoxicity at 70.5 h is -11.3%.
Take `COCC(=O)N1CCCC1c1cc(Nc2nnc(C)s2)nc(C)n1` (configuration not stated): the cytotoxicity at 70.5 h was 21.4%.
`Cc1noc(C)c1-c1cncc(C2CCCN2Cc2cncnc2)n1` (configuration not stated): the cytotoxicity at 70.5 h was -20.4%.
`Cc1nonc1C(=O)N1CCCC(c2ncncc2-c2ccncc2)C1` (configuration not stated): the cytotoxicity at 70.5 h is -28.8%.
The same measure for `Cc1cc(-c2cnc(NC3CC3)nc2-c2ccc(C)o2)on1`: -9.8%; for `Cc1cc(-c2cnc(N3CCNC(=O)C3)nc2-c2ccc(C)o2)on1`: -16.3%; for `c1cnc(-c2cnc(N3CCSCC3)nc2C2CC2)cn1`: -15.9%.
Take `Cn1cc(CN2CCc3c(nc(-c4ccccn4)[nH]c3=O)C2)cn1`: the cytotoxicity at 70.5 h is -23.4%.
As to `CC(=O)N1CCC(Cc2cnc(-c3c(C)nn(C)c3C)cn2)C1` (configuration not stated), the cytotoxicity at 70.5 h is -25.8%.
Under `Cc1nc(C2CCCCN2C(=O)c2ccccc2)ncc1C(=O)N(C)C` (configuration not stated) stands -12%; under `Cc1cccc(Nc2nccnc2C2CCCN2CC(=O)N(C)C)n1` (configuration not stated), 18.8%.
The same measure for `CN1CCCCC1c1ncc2c(n1)CCN(Cc1ccccc1Cl)C2` (configuration not stated): -7.2%.
The same measure for `COc1ccc(CN2CCc3nc(C4CCCCN4C)ncc3C2)cc1` (configuration not stated): -10.4%; for `NC(=O)C1(Cc2ccccc2-c2ccccc2)CCCN(CC2CC2)C1` (configuration not stated): -14.5%.
In the case of `CC(C)S(=O)(=O)N1CCC(c2cc3n(n2)[C@@H](C(F)(F)F)C[C@@H](C)N3)C1` (some centres not stated), the cytotoxicity at 70.5 h is -11%.
Under `O=C(NCC1CC1)Nc1cnc2cc(Cl)ccc2c1O` stands -1.93%.
As for `COc1ccc2c(O)c(NC(=O)NCC3CC3)cnc2c1`, the cytotoxicity at 70.5 h turned out to be 9.51%.
On to `CC1CCCN(Cc2c(C3CCOCC3)[nH]c3ncccc23)C1` (configuration not stated), for which the cytotoxicity at 70.5 h is 26.7%.
For `O=C(c1ccncc1)N1Cc2ccccc2OC2(CCOCC2)C1`, the cytotoxicity at 70.5 h is -18.2%.
Regarding `O=C(O)C1(Cc2cc(-c3ccc(F)cc3F)no2)CCOCC1`, the cytotoxicity at 70.5 h stood at 20.5%.
Consider `COCC(=O)N(C)Cc1nc(N2CCCC2)ncc1-c1ccncc1`, for which the cytotoxicity at 70.5 h turned out to be 13.6%.
With `COc1ccc(Cn2c(C3CCNCC3)cc3cccnc32)cc1`, the cytotoxicity at 70.5 h stood at 3.16%.
`O[C@@H]1CN(Cc2ccc(F)c(F)c2)CC[C@H]1NCc1ccccn1`: the cytotoxicity at 70.5 h worked out at 22.5%.
The same measure for `CN(C)Cc1cnc(C2CCN(C(=O)c3ccccc3F)C2)[nH]1` (configuration not stated): -3.2%.
Under `CN(Cc1nc(N2CCCC2)ncc1-c1ccncc1)C(=O)C(C)(C)C` stands -2.37%; under `CC1(C(=O)N2CCOCC2)CNCCO1` (configuration not stated), -7.18%.
Under `CNCC(=O)N1CCCC(c2nccnc2Oc2cccc(F)c2)C1` (configuration not stated) stands -10.3%; under `O=C(CCC1CCCC1)NCCn1nc(C2CCNC2)c2cccnc21` (configuration not stated), -14.1%.
For `Cc1ccc2c(c1)CN(C(=O)C1CCCCC1)C(CN(C)C)CO2` (configuration not stated), the cytotoxicity at 70.5 h was 0.565%.
For the compound `Cc1cc2c(=O)n3c(nc2s1)CCN(Cc1cnn(C)c1C)CC3`, the cytotoxicity at 70.5 h was -11.8%.
`Cc1ccc(CNC(=O)CN2CCN(CC(O)C3CC3)CC2)cc1` (configuration not stated): the cytotoxicity at 70.5 h is -8.6%.
For the compound `Cc1ccc(CNC(=O)CN2CCN(CC(O)c3ccco3)CC2)cc1` (configuration not stated), the cytotoxicity at 70.5 h was determined as 29.2%.
